# Legend:
# [1] = test system: Spodoptera Littoralis larvae; test: Activity against Spodoptera Littoralis larvae (topical application); format: in vivo; details: for % dead after 24 h / % dead after 48 h: 1 μl acetone solution
# Protocol: B. Activity against Spodoptera Littoralis larvae
# This test was effected by topical application of 1 μl of an acetone solution of product A on the dorsal thorax of each larva and for each test, 15 caterpillers of Spodoptera Littoralis in the 4th larva stage were used. After treatment, the individuals were placed in an artificial nutritive media (Poitot medium) and the number of dead caterpillers was determined 24 and 48 hours after the treatment to determine the LD50 dose.
# [2] = test system: insects; test: Insecticidal activity (general statement); format: in vivo; details: in words
# [3] = test system: domestic flies (houseflies); test: Activity against houseflies (topical application); format: in vivo, domestic flies of mixed sexes; details: for % dead after 24 hours: 1 μl acetone solution, dorsal thorax
# Protocol: A. Activity against houseflies
# The insecticidal tests were effected on domestic flies of mixed sexes by applying a topical solution of 1 μl of acetone solution of (S) α-cyano-3-phenoxybenzyl 2,2-dimethyl-3R-(2,2-dichlorovinyl)-cyclopropane-1R-carboxylate (product A) to the dorsal thorax of the flies. 50 flies were used for each test and the results were determined as the LD50, dose at which 50% of the flies were dead 24 hours after treatment.
structure (smiles),measurement,setting,value
"CC1(C)[C@H](C(=O)O[C@H](C#N)c2cccc(Oc3ccccc3)c2)[C@@H]1C=C(Cl)Cl [product A, (S) α-cyano-3-phenoxybenzyl 2,2-dimethyl-3R-(2,2-dichlorovinyl)-cyclopropane-1R-carboxylate]",% dead after 24 h,"[1]; dose 0.1562 ng, topical, dorsal thorax, 4th larva stage",20.5%
same,% dead after 48 h,"[1]; dose 0.1562 ng, topical, dorsal thorax, 4th larva stage, 48 h",27.3%
same,% dead after 24 h,"[1]; dose 0.3125 ng, topical, dorsal thorax, 4th larva stage",48.9%
same,% dead after 48 h,"[1]; dose 0.3125 ng, topical, dorsal thorax, 4th larva stage, 48 h",62.2%
same,% dead after 24 h,"[1]; dose 0.625 ng, topical, dorsal thorax, 4th larva stage",80.0%
same,% dead after 48 h,"[1]; dose 0.625 ng, topical, dorsal thorax, 4th larva stage, 48 h",82.2%
same,% dead after 24 h,"[1]; dose 1.25 ng, topical, dorsal thorax, 4th larva stage",95.6%
same,% dead after 48 h,"[1]; dose 1.25 ng, topical, dorsal thorax, 4th larva stage, 48 h",97.8%
same,effective against larvae of Spodoptera Littoralis,"[1]; in words, experimental tests",effective
same,LD50 at 48 h,"[1]; topical, dorsal thorax, 4th larva stage, 48 h",0.3 ng
same,insecticidal activity,[2],excellent insecticidal activity
same,% dead after 24 hours,"[3]; dose 0.625 ng, topical",10.0%
same,% dead after 24 hours,"[3]; dose 1.25 ng, topical",34.5%
same,% dead after 24 hours,"[3]; dose 2.5 ng, topical",68.0%
same,% dead after 24 hours,"[3]; dose 3.75 ng, topical",83.2%
same,% dead after 24 hours,"[3]; dose 5 ng, topical",93.3%
same,LD50,"[3]; dose at which 50% of the flies were dead 24 hours after treatment, topical",1.6 ng
same,effective against domestic flies,"[3]; in words, experimental tests",effective against domestic flies
same,insecticidal activity against houseflies,"[3]; in words, from Table I",very high insecticidal activity

# Source: US4133826A, “Novel inversion process” (Roussel UCLAF, priority 1976, dated 1979)
